Assay results: patent publication US4281009A, “Hydantoin derivatives” (Nippon Zoki Pharmaceutical Co., Ltd., priority 1978, dated 1981)

Key:
isolated duodenum = test: Recovery of acetylcholine sensitivity of isolated duodenum of SART stress mice (Magnus method); format: in vivo, mice (dd-strain male); details: 6th day, Ach 10^-7 g/ml, Average ± S.E.
Excerpt: (§1) SART stress animals used in the tests described below were raised according to a method of Kita, et al. [Folia Pharmacol. Japan.: 71, 195-210 (1975)].
3. Effect of recovering acetylcholine (Ach) sensitivity of isolated intestinal tract:
Groups each comprising at least 10 dd-strain male mice were used. The compounds of the present invention or other comparative drugs were given intraperitoneally once a day during the stress-causing operation. On the 6th day, Ach (10^-7 g/ml.) sensitivity of isolated duodenum was examined using the Magnus method.

[1] = tested on: normal mice and SART stress mice; test: Analgesic effect, acetic acid writhing method; format: in vivo; details: Mus musculus, sc, 100 mg/Kg subcutaneously
Description: 5.2. Acetic acid writhing method: 0.1 ml./10 g of isotonic sodium chloride solution containing 0.7% acetic acid was given intraperitoneally to groups of mice each comprising 5 normal mice and 5 SART stress mice to which SART stress had been applied for 8 days. Writhing syndromes number appeared for 15 minutes after the administration was measured. The effect was evaluated by giving 100 mg/Kg of the compounds of the present invention or DPH subcutaneously and comparing the writhing syndromes number of the mice with that of control mice.

[2] = Acute toxicity test (LD50, Litchfield-Wilcoxon), mice; details: mouse, in vivo, ip, intraperitoneal
Description: (§2) Toxicity tests were carried out by intraperitoneal administration of the compound of the present invention to groups each comprising 10 ICR-strain mice and SD-strain rats. LD50 was calculated by the Litchfield-Wilcoxon method based on the number of death 72 hours after the administration.

[3] = Acute toxicity test (LD50, Litchfield-Wilcoxon), rats; details: rat, in vivo, ip, intraperitoneal
Description: as §2

[4] = tested on: normal mice and SART stress mice; test: Analgesic effect, D'Amour-Smith method; format: in vivo, mice (ddY-strain male); details: Mus musculus, ip, intraperitoneal 100 mg/kg
Description: 5.3. D'Amour-Smith method:
Groups each comprising 10 ddY-strain male normal mice and SART stress mice to which SART stress had been applied for 4 days were used. The root of the tail of the mouse to which black ink was applied was irradiated with infrared rays for up to 15 seconds. Time required till escape response was observed was measured. The effect was shown by the ratio of the mice in which an average value of the response time at 30, 60, 90 and 120 minutes after the administration of the compounds of the present invention or other comparative drugs was prolonged to at least 2 times as long as the time before the administration.

SART stress mice = test: Inhibitory effects on increase of heart rate and elongation of QRS-time in SART stress mice; format: in vivo, mice (dd-strain male); details: 9th day, Average ± S.D.
Description: as §1
2. Inhibitory effects on increase of heart rate and elongation of QRS-time in stress animals:
Groups of mice each comprising 11 or 12 dd-strain male mice were divided into three groups in the same manner as above and heart rate and QRS-time were determined on the 9th day after initiation of the tests.

[5] = tested on: normal mice and SART stress mice; test: Analgesic effect, tail pressure method (Randall-Selitto's device); format: in vivo, mice (ddY-strain male); details: 60 minutes; for change in vivo at 100 mg/kg: Mus musculus, ip, 1 h, intraperitoneal 100 mg/kg; for Analgesic effect: intraperitoneal 50 mg/kg
Description: 5.1 Tail pressure method:
Randall-Selitto's device for determining analgesic effect by pressure stimulation was used. […]. The compounds of the present invention or other comparative drugs were given thereto and analgesic effect was determined. The effect was judged by measuring pressure applied 60 minutes after the intraperitoneal administration of the compounds of the present invention. The pressure thus measured was divided by a pressure before the administration. The value thus obtained was compared with that of a control group (to which 10 ml./Kg of 0.5% sodium salt of carboxymethylcellulose or 0.5% Tween 80 was given). When the compounds of the present invention were given perorally and other comparative drugs were given, an average of the pressure at 30, 60, 90 and 120 minutes after the administration was employed for evaluating the effect.

ddY-strain male mice = test: Effect of prolongation of sleeping time (hexobarbital); format: in vivo; details: for change in vivo at 100 mg/kg / change in vivo at 300 mg/kg: Mus musculus, ip; for change in vivo at 100 mg/kg: 100 mg/kg intraperitoneal; for change in vivo at 300 mg/kg: 300 mg/kg intraperitoneal
Description: 7. Effect of prolongation of sleeping time:
Groups of mice each comprising 10 ddY-strain male mice were used. Sodium salt of hexobarbital was given intraperitoneally. Thereafter, the period of time in which righting reflex disappeared was measured. The effect was evaluated on the basis of prolongation of time of disappearance of righting reflex by the intraperitoneal administration of the compounds of the present invention as compared with control mice.

Wistar-strain male rats = test: Antiulcerogenic effect on Shay's ulcer (operative ulcer); format: in vivo; details: 150 mg/kg intraperitoneal, 10 times
Description: 6.2. Antiulcerogenic effect on Shay's ulcer (operative ulcer):
Tests were carried out by using groups of rats each comprising 5-10 Wistar-strain male rats according to Shay method [Shay Harry; Gastroenterology,; 5, 43 (1945)]. Ulcers in the anterior stomach were classified on the following basis:
2. 1-5 small ulcers (diameter of less than 3 mm)
3. 6 or more small ulcers or one big ulcer (diameter of more than 3 mm)
4. two or more big ulcers

dd-strain male mice [6] = test: Antiulcerogenic effect on Takagi's restraint-plus-water-immersing ulcer; format: in vivo; details: Mus musculus, ip; 150 mg/kg intraperitoneal
Description: 6.1 Antiulcerogenic effect on Takagi's restraint-plus-water-immersing ulcer: Groups each comprising 8-26 dd-strain male mice were used. The tests were carried out according to a method of Takagi, et al. [Chem. Pharm. Bull.; 12, 465 (1964)]. Sum of length of diseased parts in the glandular stomach was measured and it was compared with that of control group. The compounds of the present invention or DPH was given intraperitoneally immediately before the restraint and immersion in water.

[7] = tested on: normal rats and SART stress rats; test: Analgesic effect, pain induced by Bradykinin; format: in vivo, rats (SD-strain male); details: intraperitoneal 100 mg/kg
Description: 5.4 Method of measuring a pain induced by Bradykinin:
Groups each comprising 4-8 SD-strain male normal rats and SART stress rats to which SART stress had been applied for 4 days were used. The tests were carried out according to the method of Deffenu et al. [Deffenu, G., Pegrassi, L., & Fumachi. B.; J. Pharm. Pharmacol.; 18, 135 (1966)] and Blane method [Blane, G. F.; J. Pharm. Pharmacol.; 19, 367 (1967)]. The effect judged was shown by ratio of the rats in which the effect was recognized according to the method of Abe, et al. [Abe, Kaneko & Takagi; Folia Pharmacol. Japon.; 67, 9-14 (1971)].

dd-strain male mice [8] = test: Inhibitory effect on Tremorine-induced tremor; format: in vivo; details: 100 mg/kg intraperitoneal; tremorine 10 mg/Kg
Description: 9. Inhibitory effect on Tremorine-induced tremor:
Groups of mice each comprising 10-40 dd-strain male mice were used. Effect of the compounds of the present invention on tremor caused by tremorine was examined. The compounds of the present invention or DPH was given intraperitoneally. 45 minutes thereafter, 10 mg/Kg of tremorine was given intraperitoneally for inducing the tremor.

[9] = tested on: spontaneously hypertensive rats (SHR); test: Antihypertensive effect in spontaneously hypertensive rats; format: in vivo; details: 60 minutes
Description: 8. Antihypertensive effect: Groups of rats each comprising 6-9 spontaneously hypertensive rats (SHR) were used. The compounds of the present invention or DPH was given intraperitoneally. The rate of antihypertension 60 minutes after the administration was determined.

SMILES | Ach-induced contraction of the isolated deodedum (isolated duodenum; 5 mg/kg/day intraperitoneal) | LD50 at 72 h ([2]; female) | LD50 at 72 h ([2]; male) | LD50 at 72 h ([3]; female) | LD50 at 72 h ([3]; male) | responders at 100 mg/kg ([4]; SART stress mice) | responders at 100 mg/kg ([4]; normal mice) | change in vivo at 100 mg/kg ([5]; SART stress mice) | change in vivo at 100 mg/kg ([5]; normal mice) | change in vivo at 100 mg/kg (ddY-strain male mice) | change in vivo at 300 mg/kg (ddY-strain male mice) | further results
NC(=O)C1(N2CCCCC2)CCN(CCCN2c3ccccc3CCc3ccccc32)CC1 [Carpipramine] | 52 ± 6% | – | – | – | – | – | – | – | – | – | – | Ach-induced contraction of the isolated deodedum (isolated duodenum; 10 mg/kg/day intraperitoneal): 110 ± 26%
CN(C)CCCN1c2ccccc2Sc2ccc(Cl)cc21 [Chlorpromazine] | – | – | – | – | – | – | – | – | – | – | – | Ach-induced contraction of the isolated deodedum (isolated duodenum; 0.1 mg/kg/day intraperitoneal): 45 ± 12%; Ach-induced contraction of the isolated deodedum (isolated duodenum; 0.5 mg/kg/day intraperitoneal): 81 ± 17%
COc1ccc(C2(c3ccc(OC)c(C)c3)NC(=O)NC2=O)cc1 (stereo not drawn) [Compound 3, 5-(4-methoxy-3-methylphenyl)-5-(4-methoxyphenyl)hydantoin] | – | > 5000 mg/kg | > 5000 mg/kg | > 5000 mg/kg | > 5000 mg/kg | 40% | 30% | 91% | 47.4% | 76.6% | 93.9% | inhibition in vivo at 100 mg/kg ([1]; SART stress mice): 22%; inhibition in vivo at 100 mg/kg ([1]; normal mice): 2%; Heart rate (SART stress mice; 100 mg/kg/day): 710 ± 83 min⁻¹; QRS-time (SART stress mice; 100 mg/kg/day): 13.1 ± 1.7 1/1000 sec; Analgesic effect ([5]; SART stress mice): 60.3%; Analgesic effect ([5]; normal mice): 44.3%
O=C1NC(=O)C(c2ccccc2)(c2ccc(F)cc2)N1 (stereo not drawn) [Compound 5, 5-(4-Fluorophenyl)-5-phenylhydantoin] | – | 810 mg/kg | 840 mg/kg | 1100 mg/kg | 1180 mg/kg | 40% | 10% | 95% | 19.8% | 31% | 38.1% | Antiulcerogenic effect on Shay's ulcer (operative ulcer) (Wistar-strain male rats): 20.7%; inhibition in vivo at 150 mg/kg (dd-strain male mice [6]): 22.8%
O=C1NC(=O)C(c2ccccc2)(c2ccc(O)cc2)N1 (stereo not drawn) [Compound 7, 5-(4-Hydroxyphenyl)-5-phenylhydantoin] | – | > 5000 mg/kg | > 5000 mg/kg | > 5000 mg/kg | > 5000 mg/kg | 50% | 40% | 106% | 38.1% | 112% | – | Analgesic effect ([7]; SART stress rats): 66.7%; Analgesic effect ([7]; normal rats): 50%; inhibition in vivo at 100 mg/kg ([1]; SART stress mice): 31.3%; inhibition in vivo at 100 mg/kg ([1]; normal mice): 3.8%; Heart rate (SART stress mice; 50 mg/kg/day): 690 ± 56 min⁻¹; QRS-time (SART stress mice; 50 mg/kg/day): 12.6 ± 1.5 1/1000 sec; Analgesic effect ([5]; SART stress mice): 76.5%; Analgesic effect ([5]; normal mice): 31.5%; Inhibitory effect on Tremorine-induced tremor (dd-strain male mice [8]): 35%; Effect of prolongation of sleeping time (ddY-strain male mice; 20 mg/kg intraperitoneal): 48.0%; Effect of prolongation of sleeping time (ddY-strain male mice; 50 mg/kg intraperitoneal): 101.7%
Cc1cc(C2(c3ccc(O)cc3)NC(=O)NC2=O)ccc1O (stereo not drawn) [Compound 30, 5-(4-Hydroxy-3-methylphenyl)-5-(4-hydroxyphenyl)hydantoin] | – | > 5000 mg/kg | > 5000 mg/kg | > 5000 mg/kg | > 5000 mg/kg | 30% | 20% | 97.5% | 59.8% | 26.6% | 97.4% | inhibition in vivo at 100 mg/kg ([1]; SART stress mice): 25.2%; inhibition in vivo at 100 mg/kg ([1]; normal mice): 3.9%; Heart rate (SART stress mice; 100 mg/kg/day): 731 ± 71 min⁻¹; QRS-time (SART stress mice; 100 mg/kg/day): 13.4 ± 1.1 1/1000 sec; Analgesic effect ([5]; SART stress mice): 43.6%; Analgesic effect ([5]; normal mice): 12.4%; Rate of antihypertension ([9]; 150 mg/Kg intraperitoneal): 10.9%; Rate of antihypertension ([9]; 300 mg/Kg intraperitoneal): 28.6%
O=C1NC(=O)C(c2ccc(O)cc2)(c2ccc(O)c(Cl)c2)N1 (stereo not drawn) [Compound 33, 5-(3-Chloro-4-hydroxyphenyl)-5-(4-hydroxyphenyl)hydantoin] | – | > 5000 mg/kg | > 5000 mg/kg | > 5000 mg/kg | > 5000 mg/kg | 30% | 20% | 69.8% | 29.5% | 24.2% | 32.9% | Inhibitory effect on Tremorine-induced tremor (dd-strain male mice [8]): 29%; Antiulcerogenic effect on Shay's ulcer (operative ulcer) (Wistar-strain male rats): 54.2%; inhibition in vivo at 150 mg/kg (dd-strain male mice [6]): 29.8%
CN1C(=O)CN=C(c2ccccc2)c2cc(Cl)ccc21 [Diazepam] | 25 ± 6% | – | – | – | – | – | – | – | – | – | – | –
CN(C)CCOC(c1ccccc1)c1ccccc1 [Diphenhydramine] | – | – | – | – | – | – | – | – | – | – | – | Ach-induced contraction of the isolated deodedum (isolated duodenum; 10 mg/kg/day intraperitoneal): 25 ± 5%
CN(C)CCCN1c2ccccc2CCc2ccccc21 [Imipramine] | 44 ± 15% | – | – | – | – | – | – | – | – | – | – | Ach-induced contraction of the isolated deodedum (isolated duodenum; 10 mg/kg/day intraperitoneal): 100 ± 4%
CCCC(C)(COC(N)=O)COC(N)=O [Meprobamate] | 31 ± 2% | – | – | – | – | – | – | – | – | – | – | –
COC(=O)[C@H]1[C@H]2C[C@@H]3c4[nH]c5cc(OC)ccc5c4CCN3C[C@H]2C[C@@H](OC(=O)c2cc(OC)c(OC)c(OC)c2)[C@@H]1OC [Reserpine] | – | – | – | – | – | – | – | – | – | – | – | Ach-induced contraction of the isolated deodedum (isolated duodenum; 0.1 mg/kg/day intraperitoneal): 75 ± 10%; Ach-induced contraction of the isolated deodedum (isolated duodenum; 0.5 mg/kg/day intraperitoneal): 104 ± 15%
